US20170181999A1, “USE OF COMPOUNDS PRODUCED FROM ARRABIDAEA BRACHYPODA EXTRACTS AS ANTI-ULCEROGENIC AGENTS” (UNIVERSIDADE ESTADUAL PAULISTA "JULIO DE MESQUITA FILHO" - …, priority 2013, published 2017)
Marks after values point to notes of the source that are not given here.

Tests used:
gastric acid secretion = assay: Pylorus ligature and evaluation of the gastric juice parameters; format: in vivo, rats; conditions: intra-duodenal administration; pylorus ligature, 4 hours
Protocol: The rats were in fasting for 48 hours with water ad libitum. On the day of the trial, the animals were divided into four groups: saline, lansoprazole, cimetidine and treated with A. brachypoda extract.
The rats were anesthetized and underwent a longitudinal incision just below the xiphoid apophysis for the pylorus ligature.
The drug administration was carried out immediately after the ligature, intraduodenally. The incisions were sutured, and after four hours of surgery, the rats were sacrificed. The stomachs were carefully withdrawn and acid secretion was collected. After centrifugation, the volume and pH of the secretion of each animal was measured.

myeloperoxidase (MPO) [1] = assay: MPO activity, ulcer induced by ethanol; format: in vivo; conditions: rats
Protocol: The myeloperoxidase activity was determined through the method disclosed by Krawisz et al. in 1984. The samples were homogenized in hexadecyl trimethyl ammonium bromide (HTAB) buffer at 0.5% (w/v) in saline phosphate buffer (50 mM, pH 6.0) with final dilution of 1:20 (w/v) until the obtainment of an uniform aspect. […]
The sample was centrifuged at 7000 G, during 10 minutes and the MPO activity was determined following the kinetics of the reaction faced to hydrogen peroxide. […]
(§4) The absorbance was determined at 450 nm and the enzyme activity was calculated by the interpolation of the standard curve, performed with MPO originated from human neutrophils.
(§5) One unity of MPO is defined as the necessary amount to degrade 1 mmol/minute of hydrogen peroxide at 25° C. The results were expressed as U/g of protein.

[2] = tested on: ulcer induced by acetic acid; assay: Histological analysis of stomachs, ulcer induced by acetic acid; format: in vivo, rats; conditions: treated for 14 days, compared to the saline group
Protocol: (§1) Tissue sections were also collected for preparing histological blades. The animals also had heart, lungs, liver, kidneys and testicles collected and weighted in order to verify possible signs of toxicity.
The histological cuts and blades were prepared by fixing the material in Alfac (formalin, alcohol 80% and acetic acid) for 24 hours. The pieces were, then, dehydrated and included in an appropriate medium solid.
Subsequently, the middle blocks were cut ([…] thick) on a microtome, serially. The samples were submitted to hematoxylin-eosin (HE) coloration for general observation of the structure and cellularity in light microscopy.

GSH = assay: Glutathione (GSH) levels on the gastric mucous, ulcer induced by ethanol; format: in vivo; conditions: oral administration, gastric mucous of rats
Protocol: To proceed with the measurement of the total glutathione content, the method disclosed by Anderson in 1985 was used, which bases on the total oxidation of the reduced glutathione (GSH) present in a sample to its oxidized form (GSSG), through the incubation of the sample with dithiobis nitrobenzoic acid (DTNB). The reduced DTNB acquires a yellow coloration, which can be spectrophotometrically determined. The GSSG generated is reduced by the action of the enzyme glutathione reductase in the presence of NADPH. The GSH formed oxidizes again, generating a continuous cycle, in which the reduction speed of the DTNB (and its resulting increase in the absorbance at 412 nm) is proportional to the total amount of glutathione (GSH+GSSG). To proceed with the measurement of the total glutathione content, the cytosolic extracts obtained from the stomachs of the animals of the ulcer induced by ethanol trials were used. […] The plate was placed on the spectrophotometer reader, where it was maintained for 5 minutes in a temperature of 30° C. After this period, 15 μL of glutathione reductase was added and the increase on the absorbance was registered at 412 nm. […]

[3] = Sub-chronic toxicity evaluation (organ and body weight), acetic acid ulcer model; format: in vivo, rats; conditions: oral
Protocol: (§2) After 48 hours of the surgical procedure, the oral administration of the treatments was initiated (once daily for 7 and 14 days) with EAB (300 mg/kg), lansoprazole (30 mg/kg—positive control) and vehicle (saline solution 0.9%—negative control).
(§3) The animals were weighted and observed from the induction of the injury to the end of treatments. At the end of this period, the animals were sacrificed; their stomachs were removed and opened toward the great curvature to the measurement of the ulcerative injury area.
as §1

[4] = tested on: glutathione peroxidase (GPx); assay: Glutathione peroxidase (GPx) activity on the gastric mucous, ulcer induced by ethanol; format: in vivo; conditions: oral administration, gastric mucous of rats
Protocol: Rats Unib-WH were submitted to fasting for 24 hours with water ad libitum. On the day of the trial, they were divided into 7 groups: saline as negative control, lansoprazole as positive control and four groups with the A. brachypoda roots extracts at different concentrations (dosages of 10, 30, 100 and 300 mg·Kg-1) dissolved in saline at 10 mL·Kg-1 concentrations.

[5] = tested on: ulcer induced by acetic acid; assay: Healing of the ulcer induced by acetic acid, injury area; format: in vivo, rats
Protocol: The rats were anaesthetized with xilazine chloridrate and ketamine for performing a longitudinal incision right under the xiphoid apophysis.
The previous wall of the stomach was exposed and an area of the serous tissue was delimited with a plastic ring upon which was added 50 μL of acetic acid absolute with the aid of an automatic micropipette, the contact between the acid and the serous tissue being maintained during 60 seconds.
Following, the area was cleaned with saline solution and the animals had their abdominal cavities closed, being maintained in rest until complete recovery of the anesthesia and, then, they were placed at the vivarium.
as §2, §3

[6] = tested on: glutathione reductase (GR); assay: Glutathione reductase (GR) activity on the gastric mucous, ulcer induced by ethanol; format: in vivo; conditions: oral administration, gastric mucous of rats
Protocol: For measuring the GR activity, the enzymatic reaction was prepared with 100 μL of the sample (after centrifugation and dilution of the supernatant in phosphate buffer pH=7.4 in a 1:10 ratio) and 150 μL of the mixture formed by EDTA (0.20 mM), oxidized glutathione (1 mM) and NADPH (0.1 mM). The absorbance was read at 365 nm, between 0 and 10 minutes, according to the technique developed by Carlberg & Mannervik, 1985.
Rats Unib-WH were submitted to fasting for 24 hours with water ad libitum. On the day of the trial, they were divided into […] groups: saline as negative control, lansoprazole as positive control and four groups with the A. brachypoda roots extracts at different concentrations (dosages of 10, 30, 100 and 300 mg·Kg-1) dissolved in saline at 10 mL·Kg-1 concentrations.
The animals received the predicted treatment for each group and one hour later, 1 mL of absolute ethanol was orally administered.
After one hour of ulcer induction, the rats were sacrificed by cervical dislocation and their stomachs were withdrawn for quantification of injuries.
The injury areas were calculated, the stomachs were homogenized, the cytosolic extracts were prepared and the membranes for conducting the biochemical assays.

myeloperoxidase (MPO) [7] = assay: MPO activity of the gastric mucous, ulcer induced by acetic acid; format: in vivo, rats; conditions: oral, extract 300 mg/kg, lansoprazole 30 mg/kg
Protocol: The myeloperoxidase activity was determined through the method disclosed by Krawisz et al. in 1984. The samples were homogenized in hexadecyl trimethyl ammonium bromide (HTAB) buffer at 0.5% (w/v) in saline phosphate buffer (50 mM, pH 6.0) with final dilution of 1:20 (w/v) until the obtainment of an uniform aspect.
The homogenate was submitted to the ultrasonic bath for 10 seconds, followed by a triple process for freezing and defrosting, which facilitates the rupture of the cell structures and, as a consequence, the release of the enzyme.
The sample was centrifuged at 7000 G, during 10 minutes and the MPO activity was determined following the kinetics of the reaction faced to hydrogen peroxide.
In an ELISA plate, 50 μL of the supernatant and 150 μL of the color reactive and hydrogen peroxide (0.066%) were placed in phosphate buffer (50 mM, pH 6.0).
as §4, §5

SMILES | Volume of gastric acid secretion (mL) (gastric acid secretion) | pH of the gastric acid secretion (gastric acid secretion) | MPO (U/mg of protein) (myeloperoxidase (MPO) [1]) | Photomicrographs of stomachs (FIG. 11) [2] | GSH (nmol/mg of protein) (GSH) | Evolution of the corporal weight (FIG. 5) ([3]; sub-chronic treatment, 14 days) | Relation between the weight of the organs and the animals: lungs (FIG. 3) ([3]; treated for 7 days) | GPx (nmol/min/mg of protein) [4] | Ulcerogenic injury area (FIG. 6) ([5]; 7 consecutive days, oral, extract 300 mg/kg, lansoprazole 30 mg/kg) | Evolution of the healing process, recovery of the gastric mucous (FIG. 8) ([5]; during 14 days of oral treatment) | GR (nmol/min/mg of protein) [6] | MPO (U/mg of protein) (myeloperoxidase (MPO) [7]; 7 consecutive days) | MPO (U/mg of protein) (myeloperoxidase (MPO) [7]; 14 consecutive days)
CN/C(=N/CCSCc1nc[nH]c1C)NC#N [Cimetidine, cimetidine] | 0.31 0.03** mL | 5.39 0.11*** | – | – | – | – | – | – | – | – | – | – | –
Cc1c(OCC(F)(F)F)ccnc1C[S+]([O-])c1nc2ccccc2[nH]1 (centres unmarked) [Lansoprazole, lansoprazole] | – | 5.41 0.04*** | 0.6 0.04* U/mg of protein | speeded up the healing of the gastric mucous | 13.45 ± 2.25 nmol/mg of protein | no significative statistical difference | reduction of this relation in the lungs | 33.54 ± 2.12 nmol/min/mg of protein | reduction of the injury area | acceleration | 10.53 ± 0.42 nmol/min/mg of protein | 110.50 ± 33.43 U/mg of protein | 98.05 ± 15.99 U/mg of protein
